These results are taken from patent publication US11602534B2, “Pyrimidine derivative kinase inhibitors” (HEFEI INSTITUTES OF PHYSICAL SCIENCE, CHINESE ACADEMY OF …, priority 2017, dated 2023).

Experiment [1] deals with TEL-PDGFRβ-BaF3. Kind of experiment: Proliferation of TEL-PDGFRβ-BaF3 cells, CCK8 cell viability assay. Conditions: Mus musculus, 72 hours, stably expressing PDGFRβ kinase. The experiment is classed as cell-based. An excerpt:
(§1) In this example the following cells were used: […] (purchased from ATCC), mouse P210-BaF3 (stably expressing BCR-ABL mutant activated kinase), mouse P210/T315I-BaF3 (stably expressing BCR-ABL/T315I mutant activated kinase), mouse FLT3-ITD-BaF3 (stably expressing FLT3/ITD mutant activated kinase), mouse TEL-FLT3-BaF3 (stably expressing FLT3 kinase), mouse TEL-cKIT-BaF3 (stably expressing cKIT kinase), mouse BaF3-tel/T670I-cKit (stably expressing cKIT/T670I mutant activated kinase), mouse Tel-VEGFR2-BaF3 (stably expressing VEGFR2 kinase), mouse Tel-PDGFRα-BaF3 (stably expressing PDGFRα kinase), mouse Tel-PDGFRβ-BaF3 (stably expressing PDGFRβ kinase), mouse Tel-RET-BaF3 (stably expressing RET kinase). The above cell lines were all constructed by our laboratory according to the following method: the kinase region sequences of human P210, P210/T315I, FLT3/ITD, FLT3, cKIT, cKIT/T670I, VEGFR2, PDGFRα, PDGFRβ, RET were respectively amplified by PCR, and inserted into MSCV-Puro vectors having N-terminal TEL or TPR fragments (Clontech). The vectors were stably transfected into mouse BaF3 cells by means of retrovirus, and the growth factor IL-3 were removed, eventually obtaining cell lines that depend on transferred protein P210, P210/T315I, FLT3/ITD, FLT3, cKIT, cKIT/T670I, VEGFR2, PDGFRα, PDGFRβ, or RET.
(§2) GI50 (unit: μM) was calculated by quantifying the number of living cells based on quantitative measurement of reductive dehydrogenase in living cells with CCK8 cell viability assay kit (Bestbio, China).
In general terms: Formazan colour is commonly taken as a measure of viable cells.

Experiment [2] relates to Tel-FLT3-BaF3. Description: Proliferation of Tel-FLT3-BaF3 cells, CCK8 cell viability assay. The experiment is classed as cell-based. Conditions: Mus musculus, 72 hours, stably expressing FLT3 kinase.
Excerpt: as §1, §2

The subject of experiment [3] is Tel-cKit-BaF3. Kind of experiment: Proliferation of Tel-cKit-BaF3 cells, CCK8 cell viability assay. Particulars: Mus musculus; 72 hours, CCK8; stably expressing cKIT kinase. The experiment is classed as cell-based, mouse.
Excerpt: as §1, §2

In experiment [4] the test system is TEL-PDGFRα-BaF3. Description: Proliferation of TEL-PDGFRα-BaF3 cells, CCK8 cell viability assay. Conditions: Mus musculus, 72 hours, stably expressing PDGFRα kinase. The experiment is classed as cell-based.
Excerpt: as §1, §2

Experiment [5] has as its system FLT3-ITD-BaF3. Description: Proliferation of FLT3-ITD-BaF3 cells, CCK8 cell viability assay. The experiment is classed as cell-based. Particulars: Mus musculus, 72 hours, stably expressing FLT3/ITD.
Excerpt: as §1, §2

Experiment [6] has as its system BaF3. Description: Proliferation of BaF3 cells, CCK8 cell viability assay. Conditions: Mus musculus, 72 hours. The experiment is classed as cell-based.
Excerpt: as §1, §2

The subject of experiment [7] is Tel-cKit/T670I-BaF3. Description: Proliferation of Tel-cKit/T670I-BaF3 cells, CCK8 cell viability assay. The experiment is classed as cell-based. Particulars: Mus musculus, 72 hours, stably expressing cKIT/T670I.
Excerpt: as §1, §2

Experiment [8] has as its system Tel-RET-BaF3. Kind of experiment: Proliferation of Tel-RET-BaF3 cells, CCK8 cell viability assay. Conditions: Mus musculus, 72 hours, stably expressing RET kinase. The experiment is classed as cell-based.
Excerpt: as §1, §2

In experiment [9] the test system is TEL-VEGFR2-BaF3. Kind of experiment: Proliferation of TEL-VEGFR2-BaF3 cells, CCK8 cell viability assay. The experiment is classed as cell-based. Conditions: Mus musculus, 72 hours, stably expressing VEGFR2 kinase.
Excerpt: as §1, §2

Experiment [10] has as its system P210-BaF3. Kind of experiment: Proliferation of P210-BaF3 cells, CCK8 cell viability assay. The experiment is classed as cell-based. Conditions: Mus musculus, 72 hours, stably expressing BCR-ABL mutant activated kinase.
Excerpt: as §1, §2

Experiment [11] has as its system P210/T315I-BaF3. Kind of experiment: Proliferation of P210/T315I-BaF3 cells, CCK8 cell viability assay. The experiment is classed as cell-based. Conditions: Mus musculus, 72 hours, stably expressing BCR-ABL/T315I.
Excerpt: as §1, §2

Structures can show the parent of a compound that is named as a salt.

What is called GI50 is the concentration that inhibits growth by half. A high value points to lower sensitivity of the cells. Regarding `Cc1ccc(NC(=O)Nc2ccc(Oc3cc(NC4CCN(C(=O)OC(C)(C)C)CC4)ncn3)cc2)cc1C(F)(F)F` [Example 99, 4-(6-{4-[3-(4-methyl-3-trifluoromethyl-phenyl)-ureido]-phenoxy}-pyrimidin-4-ylamino)-piperidin-1-tert-butyl Formate], the GI50 in experiment [1] is 277 nM; in [2] it was 66 nM; in experiment [3], 340 nM; in experiment [4], 14 nM; in experiment [5] it was 17 nM; in [6] it was greater than 10000 nM. For the same compound, the GI50 in experiment [7] came to 990 nM; in [8], 4600 nM; in experiment [9], 202 nM.
Turning to `Cc1ccc(NC(=O)Nc2ccc(Oc3cc(N4CCN(C(=O)OC(C)(C)C)C[C@H]4C)ncn3)cc2)cc1C(F)(F)F` [Example 100, (R)-3-methyl-4-(6-(4-(3-(4-methyl-3-(trifluoromethyl)phenyl)ureido)phenoxy)pyrimidin-4-yl)piperazin-1-tert-butyl Formate], the GI50 is 342 nM in experiment [1]; 600 nM in [2]; 1520 nM in [3]; 63 nM in experiment [4]; 30 nM in experiment [5]; 9010 nM in experiment [6]. In addition, the 50% growth inhibitory concentration (GI50) is 8080 nM in experiment [7], 5820 nM in experiment [8] and 1660 nM in experiment [9].
`Cc1ccc(NC(=O)Nc2ccc(Oc3cc(NC4CCNCC4)ncn3)cc2)cc1C(F)(F)F` [Example 103, 1-(4-methyl-3-trifluoromethyl-phenyl)-3-{4-[6-(piperidin-4-ylamino)-pyrimidin-4-yloxy]-phenyl}-urea]: the GI50 in experiment [1] was 355 nM; in experiment [2], 480 nM; in experiment [3] it was 3220 nM; in experiment [4], 70 nM; in experiment [5], 190 nM; in [6], greater than 10000 nM. Besides, the values for the GI50 in experiment [7], in experiment [8] and in experiment [9] were 9530 nM, greater than 10000 nM and 2890 nM, respectively.
Consider `CCC(=O)NCCNc1cc(Nc2ccc(CC(=O)Nc3ccc(C)c(C(F)(F)F)c3)cc2)ncn1` [Example 139, N-[2-(6-{4-[(4-methyl-3-trifluoromethyl-phenylcarbamoyl)-methyl]-phenylamino}-pyrimidin-4-ylamino)-ethyl]-propanamide], for which the GI50 in [1] is 34 nM; in experiment [2] it was 1000 nM; in experiment [3] it was greater than 10000 nM; in [4], 319 nM; in experiment [10] it was greater than 10000 nM; in [5] it was 432 nM. Also, the GI50 in [6] was greater than 10000 nM; in experiment [11] it was 9800 nM; in [7], 9980 nM; in experiment [9], 8910 nM.
Take `C=CC(=O)NCCNc1cc(Nc2ccc(CC(=O)Nc3ccc(C)c(C(F)(F)F)c3)cc2)ncn1` [Example 140, N-[2-(6-{4-[(4-methyl-3-trifluoromethyl-phenylcarbamoyl)-methyl]-phenylamino}-pyrimidin-4-ylamino)-ethyl]-acrylamide]: the GI50 was 170 nM in experiment [1]; 1110 nM in experiment [2]; greater than 10000 nM in experiment [3]; 131 nM in experiment [4]; greater than 10000 nM in [10]; 377 nM in experiment [5]. In addition, the GI50 was greater than 10000 nM in experiment [6], 9610 nM in experiment [11], greater than 10000 nM in experiment [7] and 9670 nM in experiment [9].
For `Cc1ccc(NC(=O)Nc2ccc(Oc3cc(NCC(N)=O)ncn3)cc2)cc1C(F)(F)F` [Example 142, 2-(6-{4-[3-(4-methyl-3-trifluoromethyl-phenyl)-ureido]-phenoxy}-pyrimidin-4-ylamino)-acetamide], the concentration for 50% growth inhibition (GI50) in experiment [1] is 8 nM; in experiment [2] it was 162 nM; in [3] it was 736 nM; in experiment [4], 7 nM; in [10], greater than 10000 nM; in [5] it was 54 nM. Also, the concentration for 50% growth inhibition (GI50) is greater than 10000 nM in experiment [6], greater than 10000 nM in experiment [11], 1840 nM in experiment [7] and 9670 nM in [9].
